Earlier results as cited in publication PMC7918733, “Biological Profiling of Semisynthetic C19-Functionalized Ferruginol and Sugiol Analogues” (Antibiotics, 2021).

Experiments:
[1] = system: L. donovani promastigotes; conditions: read-out: L. donovani IC50; cited from earlier work
[2] = system: P. falciparum 3D7 strain; conditions: chloroquine-sensitive strain; cited from earlier work
[3] = system: P. falciparum K1 strain; conditions: chloroquine-resistant strain; cited from earlier work
[4] = system: HepG2; conditions: cytotoxicity; cited from earlier work
[5] = system: RAJI; conditions: cytotoxicity; cited from earlier work
[6] = system: BJ; conditions: cytotoxicity; cited from earlier work
[7] = system: HEK293; conditions: cytotoxicity; cited from earlier work
[8] = system: A549 (Lung); conditions: cited from earlier work
[9] = system: Vero; conditions: cited from earlier work

SMILES: CC(C)c1cc2c(cc1O)[C@@]1(C)CCCC(C)(C)[C@@H]1CC2 [Compound 1, ferruginol]
- IC50 [1]: 12.2 µM
- EC50 [2]: 2.47 µM
- EC50 [3]: 1.33 µM
- EC50 [4]: > 25 µM
- EC50 [5]: 11.5 µM
- EC50 [6]: 19.6 µM
- EC50 [7]: > 25 µM
- GI50 [8]: 30.7 ± 5.2 µM
- CC50 [9]: > 16.6 µM
